{"source": "paper PMC10307885", "about": "“A Phase 1/2 trial of SRA737 (a Chk1 inhibitor) administered orally in patients with advanced cancer” (British Journal of Cancer, 2023)", "origin": "cited, not measured here", "key": {"patients [1]": {"tested_on": "patients", "conditions": "cited from earlier work"}, "patients [2]": {"tested_on": "patients", "conditions": "cited from earlier work", "remark": "listed apart in the source"}, "[3]": {"conditions": "in combination with standard dose gemcitabine"}}, "data": [{"smiles": "NC(=O)Nc1cc(-c2cccc(F)c2)sc1C(=O)N[C@H]1CCCNC1", "note": "[AZD7762]", "values": [{"measurement": "toxicity that halted development", "setting": "patients [1]; intravenously administered", "result": "cardiac toxicity including a drop in ejection fraction"}]}, {"smiles": "N[C@@H]1CCCN(c2c(Br)cnc3[nH]cc(NC(=O)C4CC4)c23)C1", "note": "[GDC-0575]", "values": [{"measurement": "Treatment-related neutropenia of NCI CTCAE Grade 3 or higher", "setting": "patients [1]; [3]", "result": "60 % of patients"}, {"measurement": "treatment-related GI adverse events of all grades: diarrhoea", "setting": "patients [1]; [3]", "result": 18, "unit": "%"}, {"measurement": "treatment-related GI adverse events of all grades: nausea", "setting": "patients [1]; [3]", "result": 43, "unit": "%"}, {"measurement": "treatment-related GI adverse events of all grades: vomiting", "setting": "patients [1]; [3]", "result": 27, "unit": "%"}, {"measurement": "partial or complete responses", "setting": "patients [2]; used as a single agent", "result": "did not report partial or complete responses"}]}, {"smiles": "COc1cccc(OCCCN)c1-c1cc(Nc2cnc(C#N)cn2)n[nH]1", "note": "[prexasertib]", "values": [{"measurement": "rate of diarrhoea", "setting": "patients [1]; intravenous, Phase 2 study", "result": 20, "unit": "%"}, {"measurement": "rate of nausea", "setting": "patients [1]; intravenous, Phase 2 study", "result": 36, "unit": "%"}, {"measurement": "rate of vomiting", "setting": "patients [1]; intravenous, Phase 2 study", "result": 27, "unit": "%"}, {"measurement": "efficacy in squamous anal and head and neck cancers", "setting": "patients [2]; intravenous, Phase 1 study", "result": "partial responses"}, {"measurement": "response rate", "setting": "patients [2]; patients with high-grade serous ovarian cancers", "result": 33, "unit": "%"}]}]}
